Experimental data published in patent US20100292306A1, “Compositions And Methods For The Treatment Of Muscular Dystrophy” (priority 2005, published 2010).
“Also recorded” adds a separate entry of the source.

How the values were obtained:
nuclear p65 activation = assay: TransAM NF-κB ELISA of nuclear p65 activation in mdx costal diaphragm; format: in vivo, mdx mice
Procedure: Cytosolic and nuclear fractions were obtained from isolated costal diaphragm using techniques that were slightly modified from Kumar and Boriek (2003). The muscles were removed from vehicle and drug-treated euthanized mdx mice at the end of the treatment period, and were flash-frozen and stored at −80° C. for a period of 1 to 4 weeks. The muscles were then thawed and weighed before being homogenized on ice using a mortar and pestle in low salt lysis (LSL) buffer (1 mg muscle wet weight/18 μl solution; in mM: 10 HEPES, 10 KCl, 1.5 MgCl2, 0.1 EDTA, 0.1 EGTA, 1 dithiothreitol (DTT), 0.5 phenylmethylsulfonylfluoride (PMSF); 0.5 mg/ml benzamidine, 4.0 μl/ml protease inhibitor cocktail Sigma #8340 (PIC) to produce the following final concentrations—2.1 μg/ml leupeptin, 3.85 μg/ml aprotinin, 0.416 mM AEBSF (Sigma A8456), 16 μM bestatin, 6 μM pepstatin A, 5.6 μM E64; pH 7.9). To lyse the cells, the ground tissue was then subjected to 2 freeze-thaw cycles (5 min freeze on dry ice followed by thawing at room temperature), and was subsequently vortexed and centrifuged (13,000 rpm, 15 s). The supernatant cytosolic extract was immediately frozen (−80° C.) for subsequent analyses as needed, while the nuclear pellet was washed in 50 μl LSL (2 times) before being re-suspended on ice in a high salt nuclear extraction buffer (in mM: 20 HEPES, 420 NaCl, 1 EDTA, 1 EGTA, 1 DTT, 0.5 PMSF; 25% glycerol, 0.5 mg/ml benzamidine, 4.0 μl/ml PIC; pH 7.9) at a ratio of 4 μl of solution per mg muscle wet weight. Preparations were incubated on ice for 30 min and vortexed for 10 s every 5 min before being centrifuged (13,000 rpm, 6 min) at 4° C. The supernatant nuclear extract was then removed and frozen (−80° C.) for subsequent analyses. Potential contamination of nuclear extracts with cytoplasmic proteins was less than 5%. Protein determinations for each fraction were obtained using the Bradford assay.
The Trans-Am assay (Active Motif; Carlsbad, Calif.) was used to determine nuclear NF-κB activation in nuclear fractions which were applied to the 96 well ELISA plates at 2-20 μg protein. The p65 primary antibody (catalogue number 40096) was used to detect p65 bound to oligonucleotide in vehicle and drug-treated preparations in accordance with kit instructions. A nuclear extract from Jurkat cells was routinely run as a positive control in association with each set of control and experimental samples.
Horizontal dashed lines indicate average levels observed in nondystrophic, vehicle, and UDCA treated preparations as indicated. In each case, percent recovery is determined by dividing the mean improvement observed in the UDCA treated preparation (UDCA-vehicle) from the deficit observed in the vehicle-treated preparation (nondystrophic-vehicle mdx). Mdx mice were treated for 30 days beginning at 1 month of age. Horizontal dashed lines in (A) and (B) representing nondystrophic values were obtained from a cohort of nondystrophic mice at 2 months of age. […] The results were obtained from two separate groups of vehicle and UDCA treated preparations that were assayed using two different 96 well plates. For each plate, the absorbance for each sample was normalized to the average absorbance determined for the vehicle-treated preparations on that plate. […] Millman et al., 2007. N is the number of mice and preparations in each condition. Shown are the means and standard errors. […] indicate p<0.05 and p<0.01, respectively, between vehicle and UDCA treated preparations. […]

[1] = test system: mdx triangularis sterni (TS) muscle; assay: Histological cross sections of mdx TS muscle (fiber number, diameter, density, myonuclei, centronucleation); format: in vivo, mdx mice; details: 50 mg/kg daily 30 days from 30 days of age, read at 60 days; p<0.001
nuclear NF-κB activation = details: long term treatment; Messina et al. (2006); cited from earlier work
mdx gastrocnemius muscle = assay: Gastrocnemius twitch tension at optimal length
[2] = Observation of viability, side effects and body weight during treatment; details: overall sample of PDTC-treated mice

SMILES: S=C(S)N1CCCC1 [PDTC, pyrrolidine dithiocarbamate]
- reduction of nuclear p65 activation (nuclear p65 activation; mature adult mdx, PDTC 50 mg/kg/day ip 30 days, not significant, p=0.4, N=4 vehicle, N=3 PDTC): 23%
- effect on nuclear p65 activation (nuclear p65 activation; young adult mdx, PDTC 60 days beginning at 30 days of age, N=5 per group): no effect
- percent centronucleation [1]: reduced; also recorded: significantly reduces
- nuclear NF-κB activation in mdx quadriceps (nuclear NF-κB activation): effectively reduced
- improvement in average twitch tension relative to vehicle-injected (mdx gastrocnemius muscle; mature mdx (about 15 months), 50 mg/kg daily, average 72 days): 52%
- twitch tension development (mdx gastrocnemius muscle; mature mdx mice, average age 15 months at sacrifice): improves
- improvement in twitch tension/gm relative to vehicle-injected (mdx gastrocnemius muscle; mature mdx, just failed to reach statistical significance (p>=0.05)): 45%
- increase in twitch tension vs vehicle-treated (mdx gastrocnemius muscle; young adult (2 month old) mdx): 13%
- increase in twitch tension/mg muscle weight vs vehicle-treated (mdx gastrocnemius muscle; young adult (2 month old) mdx): 11%
- twitch tension development (mdx gastrocnemius muscle; young adult mdx mice): improves
- effect on viability [2]: no obvious effect
